Measured values taken from patent US11351134B2, “Small molecule agents, compositions, and formulations, for internal use, displaying inhibitory activity against gram-positive and/or gram-negative organisms” (NATUREZA, INC., priority 2017, dated 2022).

System: representative Gram-positive pathogens and yeast
Assay: Broth microdilution of lecithin/chitosan compositions, sonicated and/or filtered
Type: cell-based
Conditions: composition with lecithin and chitosan
Description: In a further preparation, lauric acid derivative, 12-aminododecanoic acid or 12-amino-1-dodecanoic acid methyl ester, was suspended individually (and independently) in an organic solvent, chloroform, and mixed with water, generally under agitated conditions. Here, for each sample, the amount of water to the amount of chloroform was at least 2:1, and was as high as 10:1. This was followed by chloroform evaporation, generally under vacuum using a freeze dryer. After removal of the chloroform, a lecithin solution was added to each sample. The lecithin was in a solution of acetic acid (e.g., 98 mM acetic acid and 2 mM sodium acetate), in which the amount of lecithin in solution was between about 1% to 5%. With addition of lecithin, each sample mixture contained up to about 4.8% lecithin (or generally about 5% or less), and up to about 7.8% of one of the lauric acid derivatives (or generally about 8% or less). pH of the solution was neutral. It is noted that the lecithin should be in a suitable form (e.g., solution or granules) acceptable for internal utilization (e.g., pharmaceutical grade). The lecithin may also include cholesterol, or other lecithin variants as described above, with similar results. Chitosan was then added to each of the samples, and each sample was then independently sonicated, followed by independent sterilization by high pressure filtration. […]

COC(=O)CCCCCCCCCCCN.Cl [12-amino-1-dodecanoic acid methyl ester HCl]
Growth inhibitory activity against representative Gram-positive pathogens and yeast: exhibited growth inhibitory activity
